Measurements reported in patent US12427151B2, “Compositions and method of treating cancer” (The Regents of the University of California, priority 2017, dated 2025).

Assays:
[1] = tested on: GAS (NZ131); assay: BrdU incorporation assay in bacteria; type: cell-based, group A Streptococcus; conditions: 6-HAP 25 μg/mL, 30 or 60 min
Method: (§1) (a) Time course killing of GAS in THB containing 6-HAP (25 μg/mL), mitomycin C (5 μg/mL), or LL-37 (10 μM). At each indicated time point, live GAS in the media was measured by counting CFU on an agar plate. The data represent mean±SE of four individual experiments. (b) Membrane permeability of GAS incubated in THB containing 6-HAP (25 μg/mL), mitomycin C (5 μg/mL) and LL-37 (10 μM) for 1 hr. The bacteria with compromised plasma membranes (Red) can be distinguished from those with intact membranes (Green). (c) BrdU incorporation into nascent DNA of GAS after incubation with 6-HAP (25 μg/mL) or mitomycin C (5 μg/mL) in THB containing BrdU (10 μM) for 30 or 60 min. (d) BrdU incorporation into nascent DNA of S. epidermidis ATCC12228 after incubation with 6-HAP (25 μg/mL) or mitomycin C (5 μg/mL) in THB containing BrdU (10 μM) for 60 min. The data represent mean±SE of five individual experiments (*P<0.05 and **P<0.01 by Student's t-test vs vehicle control). (e-f) Capacity of 6-HAP to block in vitro DNA extension by Klenow fragment polymerase. […] Extension reaction was analyzed on a 20% acrylamide gel by electrophoresis (f). […] GAS survival was measured by counting CFU. […]
BrdU incorporation assay. […] BrdU incorporation into nascent DNA was measured in a time-dependent manner using BrdU incorporation assay kit (Roche) according to the manual.

[2] = tested on: L5178Y tk+/- mouse lymphoma cells; assay: Mutagenic activity at the thymidine kinase (tk) locus; type: cell-based; conditions: compared to vehicle
Method: Because some nucleobase analogs exert mutagenic activities due to their misrecognition of wrong bases, mutagenic activity of 6-HAP was determined by detecting mutagenic events at the thymidine kinase (tk) locus of L5178Y tk^+/− mouse lymphoma cells.

[3] = tested on: NHEKs treated with mARC1 and mARC2 siRNA; assay: Gene silencing of mARCs with siRNA, sensitivity to 6-HAP; type: cell-based, human; conditions: 6-HAP 10 μg/mL for 24 hrs, BrdU incorporation
Method: (a-b) Selective antiproliferative activity of 6-HAP against Pam212 squamous cell carcinoma, but not against normal keratinocytes. BrdU incorporation into Pam212 cells (b) or NHEKs (b) after 4-hr or 24-hr incubation, respectively, in suitable media containing indicated concentrations of 6-HAP or mitomycin C (10 μg/mL) (a). (c) Expression of mARC1 and mARC2 in NHEKs, squamous cell carcinoma (Pam212), melanoma (B16F10) and lymphoma cell lines (L5178). To compare relative expression level in each cells, data was shown as relative to GAPDH expression. (d) Expression of mARC1 and mARC2 in NHEKs treated with control siRNA, mARCI siRNA and mARC2 siRNA. (e) Effect of gene silencing with mARC1 and mARC2 siRNA on sensitivity to 6-HAP in NHEKs. NHEKs treated with each siRNA were incubated for 48 hrs and then incubated with 10 μg/mL of 6-HAP for 24 hrs.
Gene silencing of mARCs with siRNA. NHEK was cultured in EpiLife® media containing pre-designed siRNA for mARC1 or mARC2 (Thermo Fisher, Waltham, MA), and RNAiMAX® reagent for 24 hrs. Cells were maintained in EpiLife for 72 hrs, and incubated with 6-HAP (10 μg/mL) for 24 hrs. Anti-proliferative activity of 6-HAP was determined by measuring BrdU incorporation as described above.
In mammalian cells, mitochondrial […] reducing components (mARC) 1 and 2 have shown to be capable of reducing N-hydroxylated nucleobase analogs to canonical nucleobases. […]

[4] = tested on: GAS; assay: Time course killing of GAS; type: cell-based, group A Streptococcus; conditions: THB; 6-HAP 25 μg/mL, mitomycin C 5 μg/mL, LL-37 10 μM
Method: (a) Time course killing of GAS in THB containing 6-HAP (25 μg/mL), mitomycin C (5 μg/mL), or LL-37 (10 μM). At each indicated time point, live GAS in the media was measured by counting CFU on an agar plate. The data represent mean±SE of four individual experiments. (b) Membrane permeability of GAS incubated in THB containing 6-HAP (25 μg/mL), mitomycin C (5 μg/mL) and LL-37 (10 μM) for 1 hr. The bacteria with compromised plasma membranes (Red) can be distinguished from those with intact membranes (Green). (c) BrdU incorporation into nascent DNA of GAS after incubation with 6-HAP (25 μg/mL) or mitomycin C (5 μg/mL) in THB containing BrdU (10 μM) for 30 or 60 min. (d) BrdU incorporation into nascent DNA of S. epidermidis ATCC12228 after incubation with 6-HAP (25 μg/mL) or mitomycin C (5 μg/mL) in THB containing BrdU (10 μM) for 60 min. The data represent mean±SE of five individual experiments (*P<0.05 and **P<0.01 by Student's t-test vs vehicle control). (e-f) Capacity of 6-HAP to block in vitro DNA extension by Klenow fragment polymerase. Extension reaction was carried out with IRDye800-labeled 18-nt primer (SEQ ID NO:57) and 25-nt template which required adenosine (X=T) or cytidine (X=G) at the initial base for extension (SEQ ID NO:58) (e). Extension reaction was analyzed on a 20% acrylamide gel by electrophoresis (f). […] GAS survival was measured by counting CFU. […]

[5] = tested on: GAS; assay: Antimicrobial activity against GAS in the presence of adenine; type: cell-based, group A Streptococcus; conditions: 20 hrs, CFU
Method: as §1, with “control).” for “control). (e-f) Capacity of 6-HAP to block in vitro DNA extension by Klenow fragment polymerase.”
We next assessed the effect of 6-HAP on DNA synthesis. […] To directly examine the action of 6-HAP on DNA extension in a cell free system, 25-bp templates and matching 18-bp fluorescence primers were designed to measure DNA extension in vitro by Klenow (exo) DNA polymerase (FIG. 4e).

SMILES: ONc1ncnc2nc[nH]c12 [6-HAP, 6-N-hydroxyaminopurine]
- BrdU incorporation into the genomic DNA of GAS [1]: Significant suppression
- mutagenic activity, mutation frequency at tk locus [2]: did not detect a difference
- cellular sensitivity to 6-HAP after mARC1 and mARC2 gene silencing [3]: increased cellular sensitivity
- kinetics of killing, growth of GAS over time [4]: at a rate similar to mitomycin C but slower than LL37
- antimicrobial activity against GAS on addition of excessive adenine [5]: partially decreased
